Laboratory results as given in ChEMBL document CHEMBL5523709, “Synthesis and Evaluation of diaryl ether modulators of the leukotriene A4 hydrolase aminopeptidase activity” (Eur J Med Chem, 2024).
pEC50, pIC50: −log10 of the molar value. The source made the active and inactive calls. The rule behind the calls is not given here.

Legend:
[1] = Metabolic stability in mouse liver microsomes assessed as depletion measured after 30 mins; format: ADME, Microsome; conditions: read-out: Drug degradation
[2] = molecular target: T1, Leukotriene A-4 hydrolase (Homo sapiens, UniProt P09960); assay: Activation of human recombinant LTA4H aminopeptidase activity assessed as alanine-p-nitroanilide (Ala-pNA) hydrolysis by LCMS analysis
T1 sequence (P09960 whole entry): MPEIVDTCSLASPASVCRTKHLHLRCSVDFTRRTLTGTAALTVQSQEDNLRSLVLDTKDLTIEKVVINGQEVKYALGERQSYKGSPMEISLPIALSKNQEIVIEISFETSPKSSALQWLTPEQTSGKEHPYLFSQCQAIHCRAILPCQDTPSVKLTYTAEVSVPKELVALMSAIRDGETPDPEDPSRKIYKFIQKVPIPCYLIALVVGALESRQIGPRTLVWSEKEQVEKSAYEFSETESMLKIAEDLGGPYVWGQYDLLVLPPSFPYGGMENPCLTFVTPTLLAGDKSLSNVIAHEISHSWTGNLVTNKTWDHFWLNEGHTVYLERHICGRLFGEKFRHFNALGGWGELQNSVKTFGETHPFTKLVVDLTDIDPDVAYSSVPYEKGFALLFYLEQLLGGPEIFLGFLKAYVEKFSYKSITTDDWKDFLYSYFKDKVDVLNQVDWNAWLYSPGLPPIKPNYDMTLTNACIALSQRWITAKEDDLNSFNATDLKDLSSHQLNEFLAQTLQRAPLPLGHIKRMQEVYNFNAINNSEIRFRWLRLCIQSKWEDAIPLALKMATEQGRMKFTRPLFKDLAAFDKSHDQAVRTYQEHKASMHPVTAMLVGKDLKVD

[3] = molecular target: T1, Leukotriene A-4 hydrolase; assay: Inhibition of human recombinant LTA4H aminopeptidase activity assessed as alanine-p-nitroanilide (Ala-pNA) hydrolysis by LCMS analysis
[4] = molecular target: T2, Leukotriene A-4 hydrolase (Homo sapiens) (UniProt P09960); assay: Activation of human recombinant LTA4H aminopeptidase activity assessed as alanine-p-nitroanilide (Ala-pNA) hydrolysis at 10 uM measured within 2 mins time window by LCMS analysis
T2 sequence (whole entry): T1 sequence (P09960 whole entry)

Mus musculus [5] = species on record: Mus musculus; assay: Reduction in LTB4 level in 1000 CFU of Klebsiella pneumonia ATCC 43816 intranasal infected C57BL/6 mouse pneumonia model assessed as LTB4 level in bronchoalveolar lavage fluid (BALF) ELISA based by Epoxide hydrolase assay; format: functional
Mus musculus [6] = species on record: Mus musculus; assay: Anti-inflammatory activity against 1000 CFU of Klebsiella pneumonia ATCC 43816 intranasal infected C57BL/6 mouse pneumonia model assessed as mouse survival treated a day after bacterial exposure measured upto 14 days; format: functional, organism-based; conditions: time <= 14.0 day

| Structure (SMILES) | metabolised at 0.5 h [1] | pEC50 [2] | further results |
| --- | --- | --- | --- |
| C[C@]12CC[C@H]3[C@@H](CCC4=CC(=O)CC[C@@]43C)[C@@H]1CC[C@@H]2O [TESTOSTERONE] | 98% | – | – |
| Nc1nc(-c2ccc(Cc3ccccc3)cc2)cs1 | – | 6.62 | – |
| Nc1cc(-c2ccc(Oc3ccc(Cl)cc3)cc2)n[nH]1 | – | 6.92 | – |
| Clc1ccc(Oc2ccc(N3CCNCC3)cc2)cc1 | – | – | pIC50 [3]: 5.48 |
| Nc1cc[nH]n1 | 18% | – | Activity [4]: inactive; Activity (Mus musculus [5]): Active; Activity (Mus musculus [6]): inactive |
